According to the kinase profiling compilation of Christmann-Franck et al. (2016):

Columns and labels:
Test in all cases: Caliper, Mobility shift assay off-chip
[1] = molecular target: MAPK1 (human) (UniProt P28482)
[2] = molecular target: PRKACA (human) (UniProt P17612)
[3] = molecular target: CDK5 CDK5R1 p25 (human) (UniProt Q15078+Q00535)
[4] = molecular target: PRKG2 (human) (UniProt Q13237)
[5] = molecular target: PLK2 (human) (UniProt Q9NYY3)
[6] = system: MAPK14 (human), Q16539 [T106M]
[7] = molecular target: PHKG2 (human) (UniProt P15735)
[8] = molecular target: FLT1 (human) (UniProt P17948)
[9] = molecular target: ABL1 (human) (UniProt P00519)
[10] = molecular target: EPHA5 (human) (UniProt P54756)
EPHA5 (human), sequence (P54756 whole entry, looked up): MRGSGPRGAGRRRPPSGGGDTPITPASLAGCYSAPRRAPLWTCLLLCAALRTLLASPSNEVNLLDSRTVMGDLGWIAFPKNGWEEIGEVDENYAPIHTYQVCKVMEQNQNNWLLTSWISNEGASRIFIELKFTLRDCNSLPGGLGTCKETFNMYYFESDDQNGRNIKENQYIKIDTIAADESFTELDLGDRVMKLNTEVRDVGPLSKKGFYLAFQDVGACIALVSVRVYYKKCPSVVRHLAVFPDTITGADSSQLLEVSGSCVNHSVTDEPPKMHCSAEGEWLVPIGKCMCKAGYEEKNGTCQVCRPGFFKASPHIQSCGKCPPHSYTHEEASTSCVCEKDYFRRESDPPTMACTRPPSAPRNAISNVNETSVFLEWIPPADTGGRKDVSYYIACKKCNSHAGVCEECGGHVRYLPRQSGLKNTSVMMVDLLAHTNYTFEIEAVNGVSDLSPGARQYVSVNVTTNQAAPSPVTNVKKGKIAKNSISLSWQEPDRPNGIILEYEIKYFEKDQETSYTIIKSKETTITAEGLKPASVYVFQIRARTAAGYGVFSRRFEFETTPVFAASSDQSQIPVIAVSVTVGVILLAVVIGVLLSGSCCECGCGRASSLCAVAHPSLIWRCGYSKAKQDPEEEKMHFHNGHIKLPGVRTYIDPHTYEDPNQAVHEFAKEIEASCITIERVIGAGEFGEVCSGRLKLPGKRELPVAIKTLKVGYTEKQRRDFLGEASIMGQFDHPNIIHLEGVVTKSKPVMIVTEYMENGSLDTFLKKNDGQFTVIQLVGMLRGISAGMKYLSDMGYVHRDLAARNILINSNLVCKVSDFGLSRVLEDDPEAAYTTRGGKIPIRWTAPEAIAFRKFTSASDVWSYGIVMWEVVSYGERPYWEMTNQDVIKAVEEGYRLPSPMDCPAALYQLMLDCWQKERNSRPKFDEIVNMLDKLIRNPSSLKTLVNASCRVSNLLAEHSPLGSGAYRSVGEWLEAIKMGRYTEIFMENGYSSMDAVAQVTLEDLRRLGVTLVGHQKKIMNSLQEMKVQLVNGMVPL

[11] = molecular target: PAK6 (human) (UniProt Q9NQU5)
[12] = molecular target: MAPKAPK3 (human) (UniProt Q16644)
[13] = molecular target: EPHB2 (human) (UniProt P29323)
[14] = molecular target: SIK1 (human) (UniProt P57059)
SIK1 (human), sequence (P57059 whole entry, looked up): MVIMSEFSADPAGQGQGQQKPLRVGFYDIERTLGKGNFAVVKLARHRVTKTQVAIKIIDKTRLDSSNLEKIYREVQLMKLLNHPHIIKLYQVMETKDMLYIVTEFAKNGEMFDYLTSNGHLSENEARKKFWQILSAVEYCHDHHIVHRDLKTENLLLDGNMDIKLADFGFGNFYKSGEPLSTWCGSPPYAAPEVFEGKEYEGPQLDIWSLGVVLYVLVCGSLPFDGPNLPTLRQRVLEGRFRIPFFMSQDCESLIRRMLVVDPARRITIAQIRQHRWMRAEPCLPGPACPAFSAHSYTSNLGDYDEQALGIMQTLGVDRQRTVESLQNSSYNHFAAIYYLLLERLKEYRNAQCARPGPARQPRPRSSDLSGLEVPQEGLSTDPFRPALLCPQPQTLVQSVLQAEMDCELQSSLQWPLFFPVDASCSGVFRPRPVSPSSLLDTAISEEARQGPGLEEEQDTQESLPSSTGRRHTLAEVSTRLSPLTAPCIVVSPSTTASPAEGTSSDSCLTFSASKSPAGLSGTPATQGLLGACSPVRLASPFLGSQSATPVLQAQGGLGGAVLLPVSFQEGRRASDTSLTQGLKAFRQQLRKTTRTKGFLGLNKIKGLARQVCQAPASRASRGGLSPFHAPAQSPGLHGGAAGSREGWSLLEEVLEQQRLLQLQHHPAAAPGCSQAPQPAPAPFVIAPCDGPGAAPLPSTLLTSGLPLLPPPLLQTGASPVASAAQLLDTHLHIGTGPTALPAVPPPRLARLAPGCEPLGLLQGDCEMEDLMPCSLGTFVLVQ

[15] = molecular target: CDK7 CCNH MNAT1 (human) (UniProt P50613+P51948+P51946)
[16] = molecular target: CAMK2G (human) (UniProt Q13555)
[17] = system: FGFR2 (human), P21802 [N549H]
[18] = molecular target: FLT3 (human) (UniProt P36888)
[19] = molecular target: MARK2 (human) (UniProt Q7KZI7)
[20] = molecular target: AKT3 (human) (UniProt Q9Y243)
[21] = molecular target: MAPK8 (human) (UniProt P45983)
MAPK8 (human), sequence (P45983 whole entry, looked up): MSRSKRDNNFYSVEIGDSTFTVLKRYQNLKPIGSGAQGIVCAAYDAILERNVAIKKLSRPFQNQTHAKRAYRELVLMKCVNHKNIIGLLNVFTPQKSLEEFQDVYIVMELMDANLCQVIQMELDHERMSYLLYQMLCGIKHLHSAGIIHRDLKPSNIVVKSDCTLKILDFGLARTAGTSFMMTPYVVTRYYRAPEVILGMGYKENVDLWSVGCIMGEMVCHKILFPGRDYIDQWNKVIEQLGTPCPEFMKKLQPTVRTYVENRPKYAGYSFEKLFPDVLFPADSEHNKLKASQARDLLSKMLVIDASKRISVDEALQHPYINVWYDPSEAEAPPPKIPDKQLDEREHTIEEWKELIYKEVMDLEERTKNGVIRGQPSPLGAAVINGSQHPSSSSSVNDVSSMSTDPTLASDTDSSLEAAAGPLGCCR

[22] = molecular target: EPHB4 (human) (UniProt P54760)
EPHB4 (human), sequence (P54760 whole entry, looked up): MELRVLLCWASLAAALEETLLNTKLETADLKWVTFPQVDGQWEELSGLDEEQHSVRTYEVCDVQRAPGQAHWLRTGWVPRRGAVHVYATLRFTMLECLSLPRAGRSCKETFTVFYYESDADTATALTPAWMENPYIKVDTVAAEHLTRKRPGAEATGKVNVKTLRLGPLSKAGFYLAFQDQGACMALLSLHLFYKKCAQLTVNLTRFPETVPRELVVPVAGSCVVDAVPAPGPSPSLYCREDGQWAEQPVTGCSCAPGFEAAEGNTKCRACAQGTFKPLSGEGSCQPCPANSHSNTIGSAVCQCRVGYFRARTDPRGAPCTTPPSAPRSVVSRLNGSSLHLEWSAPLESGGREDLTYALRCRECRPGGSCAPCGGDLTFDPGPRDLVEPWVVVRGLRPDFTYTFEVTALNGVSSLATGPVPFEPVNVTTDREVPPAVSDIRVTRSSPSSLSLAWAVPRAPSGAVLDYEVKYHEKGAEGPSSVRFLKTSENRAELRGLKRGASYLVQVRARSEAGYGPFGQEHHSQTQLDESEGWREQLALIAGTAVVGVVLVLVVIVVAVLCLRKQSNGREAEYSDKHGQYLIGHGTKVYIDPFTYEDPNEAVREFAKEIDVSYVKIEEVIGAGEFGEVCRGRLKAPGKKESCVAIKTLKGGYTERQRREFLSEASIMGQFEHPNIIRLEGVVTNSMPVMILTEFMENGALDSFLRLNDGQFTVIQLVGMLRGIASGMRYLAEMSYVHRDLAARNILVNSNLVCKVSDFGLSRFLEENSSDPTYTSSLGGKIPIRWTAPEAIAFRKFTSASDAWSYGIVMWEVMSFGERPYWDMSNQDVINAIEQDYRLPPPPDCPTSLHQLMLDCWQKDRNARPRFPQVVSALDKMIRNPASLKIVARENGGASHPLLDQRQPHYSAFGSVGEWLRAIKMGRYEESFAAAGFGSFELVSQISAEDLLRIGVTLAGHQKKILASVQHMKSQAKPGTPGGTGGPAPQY

[23] = molecular target: FGFR2 (human) (UniProt P21802)
[24] = molecular target: CDC42BPA (human) (UniProt Q5VT25)
[25] = molecular target: PRKD2 (human) (UniProt Q9BZL6)
[26] = molecular target: STK3 (human) (UniProt Q13188)
[27] = molecular target: NLK (human) (UniProt Q9UBE8)
[28] = molecular target: MKNK2 (human) (UniProt Q9HBH9)
MKNK2 (human), sequence (Q9HBH9 whole entry, looked up): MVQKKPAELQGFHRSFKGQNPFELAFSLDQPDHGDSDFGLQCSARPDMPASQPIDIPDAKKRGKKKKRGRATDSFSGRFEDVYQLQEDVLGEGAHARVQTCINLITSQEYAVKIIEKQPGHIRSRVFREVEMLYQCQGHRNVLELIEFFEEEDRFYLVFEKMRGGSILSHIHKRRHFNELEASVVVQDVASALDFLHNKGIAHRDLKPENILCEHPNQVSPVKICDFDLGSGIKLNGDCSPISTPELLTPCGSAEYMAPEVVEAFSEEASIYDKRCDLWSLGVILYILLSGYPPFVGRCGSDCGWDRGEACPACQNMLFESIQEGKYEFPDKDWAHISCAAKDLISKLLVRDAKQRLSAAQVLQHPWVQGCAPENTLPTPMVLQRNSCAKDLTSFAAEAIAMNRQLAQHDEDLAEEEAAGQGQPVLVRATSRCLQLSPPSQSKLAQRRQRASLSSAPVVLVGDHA

[29] = molecular target: TYRO3 (human) (UniProt Q06418)
[30] = molecular target: PDGFRA (human) (UniProt P16234)
[31] = molecular target: AKT2 (human) (UniProt P31751)
[32] = molecular target: ROCK2 (human) (UniProt O75116)
ROCK2 (human), sequence (O75116 whole entry, looked up): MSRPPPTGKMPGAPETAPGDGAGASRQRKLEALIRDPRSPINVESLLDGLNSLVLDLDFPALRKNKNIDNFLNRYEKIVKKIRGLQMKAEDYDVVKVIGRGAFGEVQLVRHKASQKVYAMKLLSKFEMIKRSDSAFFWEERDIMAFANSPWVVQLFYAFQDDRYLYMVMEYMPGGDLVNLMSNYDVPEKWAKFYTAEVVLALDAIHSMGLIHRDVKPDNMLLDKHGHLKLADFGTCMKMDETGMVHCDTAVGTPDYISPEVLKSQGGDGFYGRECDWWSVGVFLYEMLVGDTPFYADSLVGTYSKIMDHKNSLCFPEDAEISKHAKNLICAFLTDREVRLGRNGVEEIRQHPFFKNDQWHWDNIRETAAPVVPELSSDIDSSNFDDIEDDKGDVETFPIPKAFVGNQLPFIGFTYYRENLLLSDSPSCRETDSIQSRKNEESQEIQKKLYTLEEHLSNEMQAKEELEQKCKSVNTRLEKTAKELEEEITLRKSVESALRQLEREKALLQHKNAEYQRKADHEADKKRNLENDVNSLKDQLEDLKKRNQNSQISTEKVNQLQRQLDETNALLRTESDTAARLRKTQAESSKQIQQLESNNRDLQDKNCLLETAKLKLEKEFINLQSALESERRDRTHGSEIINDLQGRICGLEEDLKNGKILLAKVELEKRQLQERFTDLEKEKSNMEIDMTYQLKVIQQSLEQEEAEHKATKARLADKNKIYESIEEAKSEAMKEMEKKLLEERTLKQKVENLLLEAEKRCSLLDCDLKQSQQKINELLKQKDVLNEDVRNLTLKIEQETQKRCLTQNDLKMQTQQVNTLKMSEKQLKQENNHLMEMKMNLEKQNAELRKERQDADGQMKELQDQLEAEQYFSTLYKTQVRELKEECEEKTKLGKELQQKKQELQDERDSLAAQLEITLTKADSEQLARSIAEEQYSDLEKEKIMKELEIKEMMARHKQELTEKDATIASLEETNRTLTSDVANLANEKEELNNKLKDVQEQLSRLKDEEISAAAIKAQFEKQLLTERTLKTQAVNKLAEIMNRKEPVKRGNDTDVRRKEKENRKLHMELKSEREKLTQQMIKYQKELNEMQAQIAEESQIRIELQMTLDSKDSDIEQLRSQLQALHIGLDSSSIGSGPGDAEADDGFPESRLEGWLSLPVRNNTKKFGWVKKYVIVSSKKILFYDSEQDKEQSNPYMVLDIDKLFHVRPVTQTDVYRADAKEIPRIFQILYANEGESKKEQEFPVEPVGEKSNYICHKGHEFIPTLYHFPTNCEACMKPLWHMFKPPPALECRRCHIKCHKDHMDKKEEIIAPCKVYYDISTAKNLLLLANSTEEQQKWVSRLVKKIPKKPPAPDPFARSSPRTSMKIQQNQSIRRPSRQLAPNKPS

[33] = molecular target: STK4 (human) (UniProt Q13043)
[34] = molecular target: EPHB3 (human) (UniProt P54753)
[35] = molecular target: NEK3 (human) (UniProt P51956)
[36] = molecular target: HIPK1 (human) (UniProt Q86Z02)
[37] = molecular target: PRKCB2 (human) (UniProt P05771)
[38] = molecular target: CSNK1G2 (human) (UniProt P78368)
[39] = molecular target: TLK2 (human) (UniProt Q86UE8)
[40] = molecular target: STK24 (human) (UniProt Q9Y6E0)
[41] = molecular target: PDPK1 (human) (UniProt O15530)

## O=C(N[C@@H](COc1ccc2[nH]c(=O)[nH]c2c1)c1ccccc1)c1cccn(Cc2ccc(F)c(F)c2)c1=O
[1]; compound 10.0 µM
  residual activity: 89%
[2]; compound 10.0 µM
  residual activity: 117%
[3]; compound 10.0 µM
  residual activity: 111%
[4]; compound 10.0 µM
  residual activity: 108%
[5]; compound 10.0 µM
  residual activity: 97%
[6]; compound 10.0 µM
  residual activity: 113%
[7]; compound 10.0 µM
  residual activity: 101%
[8]; compound 10.0 µM
  residual activity: 95%
[9]; compound 10.0 µM
  residual activity: 115%
[10]; compound 10.0 µM
  residual activity: 99%
[11]; compound 10.0 µM
  residual activity: 101%
[12]; compound 10.0 µM
  residual activity: 102%
[13]; compound 10.0 µM
  residual activity: 90%
[14]; compound 10.0 µM
  residual activity: 102%
[15]; compound 10.0 µM
  residual activity: 95%
[16]; compound 10.0 µM
  residual activity: 97%
[17]; compound 10.0 µM
  residual activity: 106%
[18]; compound 10.0 µM
  residual activity: 103%
[19]; compound 10.0 µM
  residual activity: 96%
[20]; compound 10.0 µM
  residual activity: 99%
[21]; compound 10.0 µM
  residual activity: 125%
[22]; compound 10.0 µM
  residual activity: 102%
[23]; compound 10.0 µM
  residual activity: 92%
[24]; compound 10.0 µM
  residual activity: 101%
[25]; compound 10.0 µM
  residual activity: 110%
[26]; compound 10.0 µM
  residual activity: 101%
[27]; compound 10.0 µM
  residual activity: 100%
[28]; compound 10.0 µM
  residual activity: 101%
[29]; compound 10.0 µM
  residual activity: 118%
[30]; compound 10.0 µM
  residual activity: 108%
[31]; compound 10.0 µM
  residual activity: 103%
[32]; compound 10.0 µM
  residual activity: 109%
[33]; compound 10.0 µM
  residual activity: 103%
[34]; compound 10.0 µM
  residual activity: 129%
[35]; compound 10.0 µM
  residual activity: 104%
[36]; compound 10.0 µM
  residual activity: 99%
[37]; compound 10.0 µM
  residual activity: 96%
[38]; compound 10.0 µM
  residual activity: 97%
[39]; compound 10.0 µM
  residual activity: 100%
[40]; compound 10.0 µM
  residual activity: 100%

## Cc1n[nH]c2c1c(=O)n(CCCN)c1ccc(Cl)cc21
[2]; compound 1.0 µM
  residual activity: 74%
[3]; compound 1.0 µM
  residual activity: 108%
[5]; compound 1.0 µM
  residual activity: 102%
[8]; compound 1.0 µM
  residual activity: 86%
[9]; compound 1.0 µM
  residual activity: 113%
[10]; compound 1.0 µM
  residual activity: 94%
[11]; compound 1.0 µM
  residual activity: 31%
[12]; compound 1.0 µM
  residual activity: 105%
[13]; compound 1.0 µM
  residual activity: 239%
[14]; compound 1.0 µM
  residual activity: 18%
[15]; compound 1.0 µM
  residual activity: 55%
[18]; compound 1.0 µM
  residual activity: 25%
[19]; compound 1.0 µM
  residual activity: 7%
[41]; compound 1.0 µM
  residual activity: 3%
[20]; compound 1.0 µM
  residual activity: 90%
[21]; compound 1.0 µM
  residual activity: 106%
[22]; compound 1.0 µM
  residual activity: 84%
[23]; compound 1.0 µM
  residual activity: 99%
[25]; compound 1.0 µM
  residual activity: 56%
[26]; compound 1.0 µM
  residual activity: 69%
[28]; compound 1.0 µM
  residual activity: 86%
[29]; compound 1.0 µM
  residual activity: 111%
[30]; compound 1.0 µM
  residual activity: 110%
[31]; compound 1.0 µM
  residual activity: 94%
[32]; compound 1.0 µM
  residual activity: 87%
[33]; compound 1.0 µM
  residual activity: 32%
[34]; compound 1.0 µM
  residual activity: 136%

## O=C(NCCCNc1nc(Nc2cccc(NC(=O)N3CCCC3)c2)ncc1I)c1cccs1
[1]; compound 1.0 µM
  residual activity: 104%
[2]; compound 1.0 µM
  residual activity: 77%
[3]; compound 1.0 µM
  residual activity: 46%
[4]; compound 1.0 µM
  residual activity: 100%
[5]; compound 1.0 µM
  residual activity: 112%
[6]; compound 1.0 µM
  residual activity: 95%
[7]; compound 1.0 µM
  residual activity: 74%
[8]; compound 1.0 µM
  residual activity: 14%
[9]; compound 1.0 µM
  residual activity: 82%
[10]; compound 1.0 µM
  residual activity: 89%
[11]; compound 1.0 µM
  residual activity: 145%
[12]; compound 1.0 µM
  residual activity: 107%
[13]; compound 1.0 µM
  residual activity: 103%
[14]; compound 1.0 µM
  residual activity: 12%
[15]; compound 1.0 µM
  residual activity: 75%
[16]; compound 1.0 µM
  residual activity: 9%
[17]; compound 1.0 µM
  residual activity: 50%
[18]; compound 1.0 µM
  residual activity: 9%
[19]; compound 1.0 µM
  residual activity: 9%
[41]; compound 1.0 µM
  residual activity: 5%
[20]; compound 1.0 µM
  residual activity: 103%
[21]; compound 1.0 µM
  residual activity: 94%
[22]; compound 1.0 µM
  residual activity: 110%
[23]; compound 1.0 µM
  residual activity: 86%
[24]; compound 1.0 µM
  residual activity: 97%
[25]; compound 1.0 µM
  residual activity: 75%
[26]; compound 1.0 µM
  residual activity: 119%
[27]; compound 1.0 µM
  residual activity: 58%
[28]; compound 1.0 µM
  residual activity: 121%
[29]; compound 1.0 µM
  residual activity: 84%
[30]; compound 1.0 µM
  residual activity: 86%
[31]; compound 1.0 µM
  residual activity: 98%
[32]; compound 1.0 µM
  residual activity: 59%
[33]; compound 1.0 µM
  residual activity: 91%
[34]; compound 1.0 µM
  residual activity: 93%
[35]; compound 1.0 µM
  residual activity: 99%
[36]; compound 1.0 µM
  residual activity: 82%
[37]; compound 1.0 µM
  residual activity: 106%
[38]; compound 1.0 µM
  residual activity: 89%
[39]; compound 1.0 µM
  residual activity: 91%
[40]; compound 1.0 µM
  residual activity: 195%

## CC(C)(C)c1nc2c3ccc(F)cc3c3c(=O)[nH]ccc3c2[nH]1
[1]; compound 10.0 µM
  residual activity: 33%
[18]; compound 10.0 µM
  residual activity: 25%
[41]; compound 10.0 µM
  residual activity: 0%
[21]; compound 10.0 µM
  residual activity: 10%
